This passage reports relative viability results from the supplement of paper PMC10307832.

Holding throughout (assay): relative viability (nuclei count vs DMSO), 5 days (fraction); higher = more cells survive
Compound in the experiment “Shikonin + Trametinib”: CC(C)=CC[C@@H](O)C1=CC(=O)c2c(O)ccc(O)c2C1=O [Shikonin] + CC(=O)Nc1cccc(-n2c(=O)n(C3CC3)c(=O)c3c(Nc4ccc(I)cc4F)n(C)c(=O)c(C)c32)c1 [Trametinib] (partner 0.02 µM)
In outline:
(§1)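 Relative viability was taken as the ratio of nuclei in treated wells to nuclei in vehicle wells. Lung cancer cell lines in 1536-well plates received compounds by pin tool one day after seeding, either one drug alone or a fixed anchor-drug dose plus five library-drug doses (not always all listed) in √10 steps. Nuclei were counted on 4× images after 5 days of treatment, and values are medians of duplicate plates.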

Compound in experiment [1]: CC(C)N(CCCNC(=O)Nc1ccc(C(C)(C)C)cc1)C[C@H]1O[C@@H](n2ccc3c(N)ncnc32)[C@H](O)[C@@H]1O + CC(C)C[C@H](NC(=O)[C@H](Cc1ccccc1)NC(=O)c1cnccn1)B(O)O [Bortezomib] (partner 0.002 µM)
The gist of the method: as §1

Compound in experiment [2]: CC(C)N(CCCNC(=O)Nc1ccc(C(C)(C)C)cc1)C[C@H]1O[C@@H](n2ccc3c(N)ncnc32)[C@H](O)[C@@H]1O + O=C(CCCCCCC(=O)Nc1ccccc1)NO [Vorinostat] (partner 1 µM)
In outline: as §1

Compound in the experiment “Shikonin + Phenformin”: CC(C)=CC[C@@H](O)C1=CC(=O)c2c(O)ccc(O)c2C1=O [Shikonin] + N=C(N)NC(=N)NCCc1ccccc1 [Phenformin] (partner 250 µM)
The gist of the method:
as §1

Turning to PC-3 [JPC-3], the relative viability was determined as 0.664 with Shikonin + Trametinib (first compound 0.01 µM); 0.688 in the experiment with Shikonin + Trametinib (first compound 0.1 µM); 0.669 with Shikonin + Trametinib (first compound 0.3162 µM); 0.616 with Shikonin + Trametinib (first compound 1 µM); 0.79 in experiment [1] (first compound 0.08 µM); 0.927 in experiment [1] (first compound 0.253 µM). In addition, the relative viability in experiment [1] (first compound 0.8 µM) came to 0.317; in experiment [1] (first compound 2.53 µM) it was 0.749; in experiment [1] (first compound 8 µM) it was 0.815; in experiment [2] (first compound 0.08 µM) it was 0.813; in experiment [2] (first compound 0.253 µM) it was 0.761; in experiment [2] (first compound 2.53 µM) it was 0.741. For the same cell line, the relative viability stood at 0.695 in experiment [2] (first compound 8 µM); 0.488 in the experiment with Shikonin + Phenformin (first compound 0.01 µM); 0.231 with Shikonin + Phenformin (first compound 0.1 µM); 0.477 in the experiment with Shikonin + Phenformin (first compound 0.3162 µM); 0.428 with Shikonin + Phenformin (first compound 1 µM).
Turning to PC-14, the relative viability in the experiment with Shikonin + Trametinib (first compound 0.01 µM) is 0.936; with Shikonin + Trametinib (first compound 0.1 µM), 0.9; with Shikonin + Trametinib (first compound 0.3162 µM), 0.893; with Shikonin + Trametinib (first compound 1 µM) it was 0.769; in experiment [1] (first compound 0.08 µM) it was 0.83; in experiment [1] (first compound 0.253 µM) it was 0.852. For the same cell line, the relative viability in experiment [1] (first compound 0.8 µM) is 0.859; in experiment [1] (first compound 2.53 µM) it was 1; in experiment [1] (first compound 8 µM), 0.743; in experiment [2] (first compound 0.08 µM), 0.71; in experiment [2] (first compound 0.253 µM), 0.722; in experiment [2] (first compound 0.8 µM) it was 0.624. The relative viability in experiment [2] (first compound 2.53 µM) turned out to be 0.702; in experiment [2] (first compound 8 µM), 0.561; in the experiment with Shikonin + Phenformin (first compound 0.01 µM) it was 0.587; with Shikonin + Phenformin (first compound 0.1 µM) it was 0.619; with Shikonin + Phenformin (first compound 0.3162 µM) it was 0.597; in the experiment with Shikonin + Phenformin (first compound 1 µM), 0.637.
As for RERF-LC-KJ, the relative viability worked out at 0.97 with Shikonin + Trametinib (first compound 0.01 µM); 0.728 with Shikonin + Trametinib (first compound 0.1 µM); 0.991 in the experiment with Shikonin + Trametinib (first compound 0.3162 µM); 0.743 with Shikonin + Trametinib (first compound 1 µM); 0.97 in experiment [1] (first compound 0.08 µM); 1.15 in experiment [1] (first compound 0.253 µM). Further, the relative viability in experiment [1] (first compound 0.8 µM) was 1.09; in experiment [1] (first compound 2.53 µM), 1.04; in experiment [1] (first compound 8 µM), 0.971; in experiment [2] (first compound 0.08 µM) it was 0.638; in experiment [2] (first compound 0.253 µM), 0.741; in experiment [2] (first compound 0.8 µM) it was 0.551. Also, the relative viability in experiment [2] (first compound 2.53 µM) was determined as 0.742; in experiment [2] (first compound 8 µM), 0.707; with Shikonin + Phenformin (first compound 0.01 µM), 0.374; in the experiment with Shikonin + Phenformin (first compound 0.1 µM), 0.433; with Shikonin + Phenformin (first compound 0.3162 µM) it was 0.505; with Shikonin + Phenformin (first compound 1 µM), 0.36.
As for SK-LU-1, the relative viability in the experiment with Shikonin + Trametinib (first compound 0.01 µM) worked out at 0.46; in the experiment with Shikonin + Trametinib (first compound 0.1 µM) it was 0.485; with Shikonin + Trametinib (first compound 0.3162 µM), 0.513; in the experiment with Shikonin + Trametinib (first compound 1 µM), 0.449; in experiment [1] (first compound 0.08 µM) it was 1.22; in experiment [1] (first compound 0.253 µM), 1.02. The relative viability in experiment [1] (first compound 0.8 µM) worked out at 1.18; in experiment [1] (first compound 2.53 µM) it was 1.31; in experiment [1] (first compound 8 µM), 1.03; in experiment [2] (first compound 0.08 µM), 0.742; in experiment [2] (first compound 0.253 µM), 0.775; in experiment [2] (first compound 0.8 µM), 0.87. The relative viability in experiment [2] (first compound 2.53 µM) was determined as 0.87; in experiment [2] (first compound 8 µM) it was 0.736; in the experiment with Shikonin + Phenformin (first compound 0.01 µM), 0.522; in the experiment with Shikonin + Phenformin (first compound 0.1 µM), 0.648; with Shikonin + Phenformin (first compound 0.3162 µM), 0.596; with Shikonin + Phenformin (first compound 1 µM), 0.524.
In the case of SW 1573, the relative viability with Shikonin + Trametinib (first compound 0.01 µM) was 0.615; with Shikonin + Trametinib (first compound 0.1 µM), 0.502; in the experiment with Shikonin + Trametinib (first compound 0.3162 µM), 0.502; in the experiment with Shikonin + Trametinib (first compound 1 µM), 0.112; in experiment [1] (first compound 0.08 µM) it was 1.13; in experiment [1] (first compound 0.253 µM) it was 1.07. Further, the relative viability worked out at 1.06 in experiment [1] (first compound 0.8 µM); 1.12 in experiment [1] (first compound 2.53 µM); 0.864 in experiment [1] (first compound 8 µM); 0.596 in experiment [2] (first compound 0.08 µM); 0.666 in experiment [2] (first compound 0.253 µM); 0.648 in experiment [2] (first compound 0.8 µM). Besides, the relative viability in experiment [2] (first compound 2.53 µM) worked out at 0.893; in experiment [2] (first compound 8 µM), 0.886; with Shikonin + Phenformin (first compound 0.01 µM), 0.389; in the experiment with Shikonin + Phenformin (first compound 0.1 µM), 0.388; with Shikonin + Phenformin (first compound 0.3162 µM) it was 0.325; with Shikonin + Phenformin (first compound 1 µM), 0.122.
